# Measurements reported in patent US9255100B2 (BAYER INTELLECTUAL PROPERTY GMBH, priority 2010, dated 2016).
# Target: T1, N-terminally GST-tagged human full length recombinant Mps-1 kinase (Homo sapiens, UniProt P33981)
# T1 construct: N-terminally GST-tagged human full length recombinant Mps-1 kinase; purchased Invitrogen, Karslruhe, Germany PV4071
# T1 sequence (P33981 1-857): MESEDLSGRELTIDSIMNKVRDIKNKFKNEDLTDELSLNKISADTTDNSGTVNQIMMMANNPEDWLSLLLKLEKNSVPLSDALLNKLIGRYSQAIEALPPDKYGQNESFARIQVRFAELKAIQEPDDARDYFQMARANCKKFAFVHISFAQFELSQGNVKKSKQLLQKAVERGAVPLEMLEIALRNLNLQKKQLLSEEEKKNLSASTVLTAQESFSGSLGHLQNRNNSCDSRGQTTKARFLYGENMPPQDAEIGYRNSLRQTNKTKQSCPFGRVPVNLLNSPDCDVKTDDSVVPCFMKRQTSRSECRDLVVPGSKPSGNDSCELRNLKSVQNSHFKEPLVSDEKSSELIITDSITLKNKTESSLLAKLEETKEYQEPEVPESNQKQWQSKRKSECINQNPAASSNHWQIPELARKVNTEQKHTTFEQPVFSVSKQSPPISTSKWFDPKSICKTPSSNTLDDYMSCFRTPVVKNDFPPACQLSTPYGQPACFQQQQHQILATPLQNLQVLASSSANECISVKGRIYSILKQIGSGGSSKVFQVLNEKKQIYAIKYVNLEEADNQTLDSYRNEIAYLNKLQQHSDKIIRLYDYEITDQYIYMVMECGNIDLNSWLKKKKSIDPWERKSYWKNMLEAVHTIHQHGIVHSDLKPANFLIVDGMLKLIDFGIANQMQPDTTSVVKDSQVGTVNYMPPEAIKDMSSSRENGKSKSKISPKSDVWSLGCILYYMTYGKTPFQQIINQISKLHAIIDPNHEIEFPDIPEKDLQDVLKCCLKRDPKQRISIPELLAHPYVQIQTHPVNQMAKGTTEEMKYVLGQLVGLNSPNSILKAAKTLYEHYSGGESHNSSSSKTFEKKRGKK
# Experiment: Mps-1 kinase assay (TR-FRET)
# Type: biochemical
# Details: Mps1 IC50 [nM], 10 μM ATP, 1 μM peptide substrate, 60 min at 22° C.
# Method in brief: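 TR-FRET signal between a Europium anti-phospho-Ser/Thr antibody and streptavidin-XLent reported phosphorylation of a biotinylated peptide by GST-tagged full-length Mps-1. Enzyme was near 1 nM final, chosen per lot for linearity.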
row,SMILES,IC50
1,"CNC(=O)c1ccc(-c2cnc3c(NCCN4CCOCC4)cc(Oc4ccc(F)c(F)c4)nn23)cc1C [Example 562, 4-[6-(3,4-difluorophenoxy)-8-{[2-(morpholin-4-yl)ethyl]amino}imidazo[1,2-b]pyridazin-3-yl]-N,2-dimethylbenzamide]",2.7 nM
2,"Cc1cc(-c2cnc3c(NCC(C)(C)O)cc(-c4ccc(F)c(CO)c4)nn23)ccc1C(=O)NC1CC1 [Example 165, N-cyclopropyl-4-{6-[4-fluoro-3-(hydroxymethyl)phenyl]-8-[(2-hydroxy-2-methylpropyl)amino]imidazo[1,2-b]pyridazin-3-yl}-2-methylbenzamide]",1.8 nM
3,"CC(C)CNc1cc(-c2cccc(Cl)c2Cl)nn2c(-c3ccc(C(=O)NC4CC4)cc3)cnc12 [Example 131, N-cyclopropyl-4-{6-(2,3-dichlorophenyl)-8-[(2-methylpropyl)amino]imidazo[1,2-b]pyridazin-3-yl}benzamide]",10 nM
4,"CSc1cc(NCc2ccnn2C)c2ncc(-c3ccc(C(=O)NC4CC4)c(C)c3)n2n1 [Example 237, N-cyclopropyl-2-methyl-4-[8-{[(1-methyl-1H-pyrazol-5-yl)methyl]amino}-6-(methylsulfanyl)imidazo[1,2-b]pyridazin-3-yl]benzamide]",5.6 nM
5,"C=Cc1cc(NCC(C)(C)O)c2ncc(-c3ccc(C(=O)NC4CC4)c(C)c3)n2n1 [Example 40, N-cyclopropyl-4-{8-[(2-hydroxy-2-methylpropyl)amino]-6-vinylimidazo[1,2-b]pyridazin-3-yl}-2-methylbenzamide]",111 nM
6,Cc1ccccc1-c1cc(NCC(C)C)c2ncc(-c3ccc(C(=O)NC4CC4)cc3)n2n1 [Example 110],1.3 nM
7,"CNC(=O)c1cccc(-c2cc(NCC(C)C)c3ncc(-c4ccc(C(=O)NC5CC5)cc4)n3n2)c1 [Example 119, 3-{3-[4-(Cyclopropylcarbamoyl)phenyl]-8-[(2-methylpropyl)amino]imidazo[1,2-b]pyridazin-6-yl}-N-methylbenzamide]",< 1 nM
8,"CNC(=O)c1ccc(-c2cnc3c(NCC4CCOCC4)cc(Oc4ccc(OC)c(F)c4)nn23)cc1C [Example 573, 4-{6-(3-fluoro-4-methoxyphenoxy)-8-[(tetrahydro-2H-pyran-4-ylmethyl)amino]imidazo[1,2-b]pyridazin-3-yl}-N,2-dimethylbenzamide]",< 1 nM
9,"CC(C)CNc1cc(-c2ccc3ncccc3c2)nn2c(-c3ccc(C(=O)NC4CC4)cc3)cnc12 [Example 144, N-cyclopropyl-4-{8-[(2-methylpropyl)amino]-6-(quinolin-6-yl)imidazo [1,2-b]pyridazin-3-yl} benzamide]",2.3 nM
10,"CCN(CC)CCSc1cc(NCCC(F)(F)F)c2ncc(-c3ccc(C(=O)NC4CC4)c(C)c3)n2n1 [Example 210, N-cyclopropyl-4-(6-{[2-(diethylamino)ethyl]sulfanyl}-8-[(3,3,3-trifluoropropyl)amino]imidazo[1,2-b]pyridazin-3-yl)-2-methylbenzamide]",6.9 nM
11,"CNC(=O)c1ccc(-c2cnc3c(NCC4CCOCC4)cc(Oc4ccc(OC)cc4)nn23)cc1C [Example 570, 4-{6-(4-methoxyphenoxy)-8-[(tetrahydro-2H-pyran-4-ylmethyl)amino]imidazo[1,2-b]pyridazin-3-yl}-N,2-dimethylbenzamide]",< 1 nM
12,"CC(=O)Nc1ccccc1-c1cc(NCC(C)C)c2ncc(-c3ccc(C(=O)NC4CC4)cc3)n2n1 [Example 107, 4-{6-[2-(Acetylamino)phenyl]-8-[(2-methylpropyl)amino]imidazo[1,2-b]pyridazin-3-yl}-N-cyclopropylbenzamide]",35.5 nM
13,"Cc1cc(-c2cnc3c(NCCC(F)(F)F)cc(C4CC4)nn23)ccc1C(=O)NC1CC1 [Example 48, N-cyclopropyl-4-{6-cyclopropyl-8-[(3,3,3-trifluoropropyl)amino]imidazo[1,2-b]pyridazin-3-yl}-2-methylbenzamide]",1.4 nM
14,"Cc1cc(-c2cnc3c(NCC4CC(=O)N(C)C4)cc(-c4ccccc4CO)nn23)ccc1C(=O)NC1CC1 (stereo not drawn) [Example 344, N-cyclopropyl-4-(6-[2-(hydroxy-methyl)phenyl]-8-{[(1-methyl-5-oxo-pyrrolidin-3-yl)methyl]amino}imidazo[1,2-b]pyridazin-3-yl)-2-methyl-benzamide]",23 nM
15,"Cc1cc(-c2cnc3c(NCC(C)(C)O)cc(Nc4ccccc4CO)nn23)ccc1C(=O)NC1CC1 [Example 434, N-cyclopropyl-4-(6-{[2-(hydroxymethyl)phenyl]amino}-8-[(2-hydroxy-2-methylpropyl)amino]imidazo[1,2-b]pyridazin-3-yl)-2-methylbenzamide]",1.3 nM

# Now from value to molecule:
row,IC50,SMILES
1,0.1 nM,"Cc1cc(-c2cnc3c(NCCC(F)(F)F)cc(Nc4ccc(F)c(O)c4)nn23)ccc1C(=O)NC1CC1 [Example 442, N-cyclopropyl-4-{6-[(4-fluoro-3-hydroxyphenyl)amino]-8-[(3,3,3-trifluoropropyl)amino]imidazo[1,2-b]pyridazin-3-yl}-2-methylbenzamide]"
2,0.2 nM,"Cc1cc(-c2cnc3c(NCCCN4CCCCC4)cc(Oc4cccc(F)c4)nn23)ccc1C(=O)NC1CC1 [Example 505, N-cyclopropyl-4-[6-(3-fluoro-phenoxy)-8-{[3-(piperidin-1-yl)propyl]amino}imidazo[1,2-b]pyridazin-3-yl]-2-methyl-benzamide]"
3,< 0.7 nM,"Cc1cc(-c2cnc3c(NCC(C)(C)O)cc(Sc4ccccc4O)nn23)ccc1C(=O)NC1CC1 [Example 73A, N-cyclopropyl-4-{8-[(2-hydroxy-2-methylpropyl)amino]-6-[(2-hydroxyphenyl)sulfanyl]imidazo[1,2-b]pyridazin-3-yl}-2-methylbenzamide]"
4,< 1 nM,"CNC(=O)c1ccc(-c2cnc3c(NCC4CCOCC4)cc(Oc4cccc(F)c4)nn23)cc1C [Example 569, 4-{6-(3-fluorophenoxy)-8-[(tetrahydro-2H-pyran-4-ylmethyl)amino]imidazo[1,2-b]pyridazin-3-yl}-N,2-dimethylbenzamide]"
5,0.5 nM,"Cc1cc(-c2cnc3c(NCC(C)(C)O)cc(Oc4ccc(F)c(Cl)c4)nn23)ccc1C(=O)NC1CC1 [Example 91, 4-{6-(3-Chloro-4-fluorophenoxy)-8-[(2-hydroxy-2-methylpropyl)amino]imidazo[1,2-b]pyridazin-3-yl}-N-cyclopropyl-2-methylbenzamide]"
6,0.3 nM,"Cc1cc(-c2cnc3c(NCC(C)(C)O)cc(Oc4ccc(Cl)c(F)c4)nn23)ccc1C(=O)NC1CC1 [Example 95, 4-{6-(4-Chloro-3-fluorophenoxy)-8-[(2-hydroxy-2-methylpropyl)amino]imidazo[1,2-b]pyridazin-3-yl}-N-cyclopropyl-2-methylbenzamide]"
7,0.2 nM,"Cc1cc(-c2cnc3c(NCC(C)(C)O)cc(Nc4cccc(F)c4F)nn23)ccc1C(=O)NC1CC1 [Example 352, N-cyclopropyl-4-{6-[(2,3-difluorophenyl)amino]-8-[(2-hydroxy-2-methylpropyl)amino]imidazo[1,2-b]pyridazin-3-yl}-2-methylbenzamide]"
8,0.2 nM,"Cc1cc(-c2cnc3c(NCCCCN(C)C)cc(Oc4cccc(F)c4)nn23)ccc1C(=O)NC1CC1 [Example 513, N-cyclopropyl-4-[8-{[4-(dimethyl-amino)butyl]amino}-6-(3-fluoro-phenoxy)imidazo[1,2-b]pyridazin-3-yl]-2-methylbenzamide]"
9,0.2 nM,"Cc1cc(-c2cnc3c(NCC(C)(C)O)cc(Sc4ccc(O)cc4)nn23)ccc1C(=O)NC1CC1 [Example 60A, N-cyclopropyl-4-{8-[(2-hydroxy-2-methylpropyl)amino]-6-[(4-hydroxyphenyl)sulfanyl]imidazo[1,2-b]pyridazin-3-yl}-2-methylbenzamide]"
10,0.2 nM,"Cc1cc(-c2cnc3c(NCCC(F)(F)F)cc(Nc4cc(F)cc(F)c4)nn23)ccc1C(=O)NC1CC1 [Example 378, N-cyclopropyl-4-{6-[(3,5-difluorophenyl)amino]-8-[(3,3,3-trifluoropropyl)amino]imidazo[1,2-b]pyridazin-3-yl}-2-methylbenzamide]"
11,0.1 nM,"Cc1cc(-c2cnc3c(NCCO)cc(Sc4cccc(F)c4)nn23)ccc1C(=O)NC1CC1 [Example 276, N-cyclopropyl-4-{6-[(3-fluorophenyl)sulfanyl]-8-[(2-hydroxyethyl)amino]imidazo[1,2-b]pyridazin-3-yl}-2-methylbenzamide]"
12,0.3 nM,"Cc1cc(-c2cnc3c(NCC4CCS(=O)(=O)C4)cc(Oc4cccc(F)c4)nn23)ccc1C(=O)NC1CC1 (stereo not drawn) [Example 327, N-cyclopropyl-4-[8-{[(1,1-dioxidotetrahydro-thiophen-3-yl)methyl]amino}-6-(3-fluorophenoxy)imidazo[1,2-b]pyridazin-3-yl]-2-methylbenzamide]"
